Measured values reported in paper PMC10823471, “Ligand-Based Competition Binding by Real-Time ^19F NMR in Human Cells” (Journal of Medicinal Chemistry, 2024).

Biological target: T1, Hsp90α N-terminal domain (Hsp90N) (Homo sapiens, UniProt P07900)
T1 construct: gene HSP90AA1
Experiment: competition binding by real-time in-cell […] NMR against spy ligand […] (Kd back-calculated)
Assay type: cell-based

Compound: CCNC(=O)c1cc2c(-c3cc(OCCN(CC)CC)c(Cl)cc3Cl)nc(N)nc2s1 [compound 5]
- Kd: 0.6 ± 0.1 nM
